Patent US11884649B2, “IRE1α inhibitors and uses thereof” (The Regents of the University of California, priority 2020, dated 2024)

Legend:
XBP1 mRNA splicing = XBP1 mRNA splicing in INS-1 cells conditionally overexpressing IRE1α (Dox); format: cell-based, rat; settings: 5 ng/mL Dox; 20 μM for XBP1s immunoblot
Procedure: RNA Isolation, Quantitative Real-Time PCR, and Primers
INS-1 or isogenic IRE1α-overexpressing INS-1 cells were plated onto Poly-D-Lysine coated tissue culture plate and grown for 48 hrs. Inhibitors or DMSO were added to the media and incubated for 1 hour at 37° C. with 5% CO2 prior to addition of ER stress agents or Dox as indicated. RNA was isolated from whole cells using either QIAGEN RNeasy Mini kits or Trizol (Invitrogen) and reverse transcribed as above to obtain total cDNA. Then, XBP-1 primers were used to amplify an XBP-1 amplicon spanning the 26 nt intron from the cDNA samples in a regular 3-step PCR. Thermal cycles were: 5 min at 95° C., 30 cycles of 30 s at 95° C., 30 s at 60° C., and 1 min at 72° C., followed by 72° C. for 15 min, and hold at 4° C. Primers used for XBP-1 mRNA splicing were as follows: sense primer XBP1.3 S (5′ […]-3′ (SEQ ID NO:2)) and antisense primer XBP1.2AS (5′-[…]-3′ (SEQ ID NO:3)). PCR fragments were then digested by PstI, resolved on 3% agarose gels, stained with EtBr and quantified by densitometry using ImageJ (NIH). For standard mRNA detection, generally […] total RNA was reverse transcribed using the QuantiTect Reverse Transcription Kit (QIAGEN). For qPCR, we used SYBR green (QIAGEN) and StepOnePlus Real-Time PCR System (Applied Biosystems). Thermal cycles were: 5 min at 95° C., 40 cycles of 15 sec at 95° C., 30 sec at 60° C. Gene expression levels were normalized to Beta Actin. Primers used for qPCR of RIDD targets were as follows: Beta Actin Fwd: 5′-[…]-3′ (SEQ ID NO:4), Beta Actin Rev: 5′-[…]-3′ (SEQ ID NO:5), Insulin 1 Fwd: 5′-GTCCTCTGGGAGCCCAAG-3′ (SEQ ID NO:6), Insulin 1 Rev: 5′-ACAGAGCCTCCACCAGG-3′ (SEQ ID NO:7), Insulin 2 Fwd: 5′-ATCCTCTGGGAGCCCCGC-3′ (SEQ ID NO:8), Insulin 2 Rev: 5′-AGAGAGCTTCCACCAAG-3′ (SEQ ID NO:9), Blos1 Fwd: 5′-[…]-3′ (SEQ ID NO:10), and Blos1 Rev: 5′-[…]-3′ (SEQ ID NO:11).
(§1) RNA was extracted using Trizol (Invitrogen), DNaseI treated, and cDNA products encompassing the intron amplified by QuantiTect Reverse Transcription Kit (Qiagen). sense Primer rXBP Forward (5′-[…]-3′ (SEQ ID NO:12)) and antisense primer rXBP Reverse (5′-[…]-3′ (SEQ ID NO:13)) were used. PCR fragments were digested by PstI, resolved on 3% agarose gels, stained with EtBr, and quantified by densitometry.
as §1, with “XBP1 splicing for FIGS. 33A-33F: RNA” for “RNA”, “(Invitrogen),” for “(Invitrogen), DNaseI treated, and”, “(Qiagen). Sense” for “(Qiagen). sense”, “rXBP splicing” for “rXBP”

mouse splenocytes = experiment: LPS-induced differentiation of mouse splenocytes into plasma cells (flow cytometry, IgM ELISA); format: cell-based; settings: 1 μg/mL LPS, three days; for IgM secretion / plasma cell (CD138+) differentiation: 20 μM-1.25 μM
Procedure: Therefore, we sought to compare the sensitivity of this process to both KIRAs and PAIRs. To this end, we assessed how KIRA8, KIRA9, and PAIR1 affected the differentiation of lipopolysaccharide (LPS)-treated mouse splenocytes into antibody-secreting plasma cells. Total live number of CD19+ B-cells were assessed and plasma cells were quantified on the basis of B220 downregulation and CD138 expression by flow cytometry (FIGS. 6A-6C, FIG. 24). Concomitantly, secreted IgM was measured in the cell culture supernatants by ELISA (FIG. 6C).
Splenocyte Isolation and Differentiation
Red blood cells were lysed with ammonium chloride potassium buffer. Splenocytes were plated at 2.5×10^5 cells/well in a 96-well round bottom plate in complete media. The splenocytes were treated with or without 1 μg/ml LPS 026:b6 (Sigma). […] The splenocytes were incubated for three days in a 37° C., 5% CO2 humidified chamber before collection and staining for flow cytometry.
Cells from the plasma cell assay were collected in a 96-well plate and washed with PBS followed by staining with LIVE/DEAD Fixable Near-IR Dead Cell Stain kit (Invitrogen). Reagent was reconstituted as per manufacturer's instructions, diluted 1:1000 in PBS, and cells were stained in 100 μL on ice for 20 minutes. The cells were then washed with FACS buffer, PBS (Corning), 2 mM EDTA and 2% heat inactivated fetal bovine serum (Omega Scientific). The cells were then stained with 50 μL antibody cocktail consisting of anti-CD19 (BioLegend), anti-CD45R (BD Pharmingen), and anti-CD138 (BioLegend) in FACS buffer on ice for 15 minutes. Cells were resuspended in FACS buffer and combined with an equal volume of 4% paraformaldehyde with 5000 Countbright Absolute Counting Beads (Thermofisher). Stained cells were analyzed on a Fortessa (Becton Dickinson). Data analysis was performed using FlowJo (v10) software (Treestar Inc.).
Media supernatants from the in vitro plasma cell differentiation assay were measured for secreted IgM by ELISA. […] Wash buffer (PBS with 0.05% Tween-20 (v/v)) was used for all washing steps and blocked with PBS-BB (PBS without Ca^2+/Mg^2+, 1% BSA (w/v), 0.05% Tween-20 (v/v)). Supernatants from LPS stimulated samples were diluted (1:100) and media only samples were diluted (1:10) in PBS-BB. […] ELISA plates were developed with TMB (Sigma) and stopped with 1N sulfuric acid. Absorbance was measured at 450 nm using spectrophotometer (Spectramax M5, Molecular Devices). Sample IgM concentration values were calculated with SoftMaxPro software.

Row | Structure (SMILES) | XBP1 mRNA splicing and expression of Xbp1s (XBP1 mRNA splicing) | overall number of B cells (CD19+), general toxicity (mouse splenocytes) | IgM secretion (mouse splenocytes) | plasma cell (CD138+) differentiation (mouse splenocytes)
1 | O=S(=O)(CCC(F)(F)F)Nc1ccc(Oc2ncccc2-c2ccnc(NC3CCCNC3)n2)c2ccccc12 (centres unmarked) [KIRA9, 3,3,3-trifluoro-N-(4-(3-(2-(piperidin-3-ylamino)pyrimidin-4-yl)pyridin-2-yloxy)naphthalen-1-yl)propane-1-sulfonamide] | more vigorously inhibited these outputs | neither PAIR1 nor KIRA9 reduced the overall number of B cells | reductions in both plasma cell differentiation and IgM secretion in a dose-dependent manner | reductions in both plasma cell differentiation and IgM secretion in a dose-dependent manner
2 | O=S(=O)(CC(F)(F)F)Nc1ccc(Oc2ncccc2-c2ccnc(N[C@H]3CCCNC3)n2)c2ccccc12 (stereo in doubt) [PAIR1, 2,2,2-trifluoro-N-(4-(3-(2-(piperidin-3-ylamino)pyrimidin-4-yl)pyridin-2-yloxy)naphthalen-1-yl)ethanesulfonamide] | largely preserved | neither PAIR1 nor KIRA9 reduced the overall number of B cells | more modest inhibition | more modest inhibition
